Data: US7846708B2, “Method for increasing the survival of bacterial strains of the Rhizobium genus” (Consiglo Nazionale delle Richerch, priority 2005, dated 2010)

How the values were obtained:
[1] = tested on: Sinorhizobium meliloti 1021; test: Effect of dehydration on survival (vacuum-dried cells plated at increasing times); format: cell-based
Method: A culture of the wild strain S. meliloti 1021, of the strain 64 and 66 were kept in growth stationary phase for three days, then they were dehydrated […] and plated at the various times shown in figure. Furthermore, a culture of the wild strain 1021 was subjected to analogous treatment, thereto 0.05 mM IAA were added after two days of growing in stationary phase, the stationary growth continued for a third day and then the bacteria were dehydrated and processed like the preceding samples.
For the dehydration test (FIG. 8), the cells were grown until reaching the stationary phase and kept for 3 days in stationary phase. The cells were centrifuged at 4000 rpm for 15′, washed in water and counted on plates as live colonies. The cells were then diluted so as to be aliquoted in Eppendorf tubes at the concentration of 1:10000 for each sample and then vacuum-dried in Savant centrifuge. After 4, 8, 14 and 32 days, the aliquots were plated on TYR selective medium, the formed colonies were counted on at least three plates and the experiment was repeated at least three times.

S. meliloti 1021 = test: Survival at low temperature (4° C.), colony counting; format: cell-based, Sinorhizobium meliloti; settings: 0.5 mM IAA; after 45 and 60 days at 4° C.; FIG. 9
Method: FIG. 9: Survival at 4° C. of wild type S. meliloti 1021 treated with IAA and of the strain RD64. The bacterial cells of the three analysed strains (wild type S.m. 1021, S.m. treated with 0.5 mM IAA and RD64) were grown until exponential phase, then plated and the plates were incubated at 4° C. for 15, 30, 45 and 60 days. Every 15 days, a plate group of each strain was transferred to 30° C. for one day and the colonies were counted.
Furthermore, the author has assayed for the ability of the same strains to resist to prolonged incubations at low temperature (4° C.). The cells of the same three strains: Sm 1021, Sm 1021 treated with 0.5 mM IAA and the strain RD64, were grown until an optical density of 0.6, plated and incubated at 4° C. for periods of time variable up to two months.

[2] = tested on: Sinorhizobium meliloti strain 1021 cells; test: Cell resistance of Sinorhizobium meliloti cells to various stress conditions (colony counting after stress); format: cell-based
Method: (§1) The number of colonies of not treated Sinorhizobium meliloti 1021 was compared to the one of the same strain treated with IAA (0.05 mM and 0.5 mM) two days after reaching the stationary phase of bacterial growth. The percentage value of the surviving cells was measured several days after treatment. Applied stresses were: pH 3 (acid stress): cells were incubated for 30 minutes and then plated; NaCl 0.5 M (high osmotic pressure): 3 hours incubation; UV light resistance: time was not determined but the UV dose was selected to reach an irradiation dosage of 100 J/m^2; treatment at high temperature 55° C.: cells were incubated for 5 minutes; treatment at low temperature (4° C.) cells were incubated for up to 60 days at 4° C.
The author has assayed for the bacteria resistance to stresses such as low and high temperatures. For the resistance to high temperatures the cells were grown in exponential phase (optical density 0.6) and then incubated for 2 minutes at room temperature or at 55° C. and then plated.
Sinorhizobium meliloti strain 1021 cells and its derivative RD64 overproducing IAA, were exposed to different stress conditions and the number of surviving cells counted by plating opportune dilutions on agar plates; after plates incubation at 30° C., the number of emerging colonies were counted (Table 1).
As a control untreated cells were plated and the number of colonies was considered as 100% for that condition. Stress applied were: • 1) low pH, pH 3, treatment: 30 minutes; • 2) high osmotic pressure (0.5 M NaCl): 3 hours; • 3) UV irradiation were automatically set at 100 J/m^2 and cells were irradiate for less that 1 minute; • 4) High (55° C.) temperature treatment: 5 minutes. Results A) Expression of the Beta-glucuronidase Modulated by the Mutation in the Promoter-iaaMtms2 Sequence

[3] = tested on: Sinorhizobium meliloti 1021; test: Growth and survival test in liquid minimal medium (colonies on agar plates after prolonged stationary phase); format: cell-based; settings: for ability to generate colonies with respect to the reference strain (1021): FIG. 6; for increase of the ability to generate colonies: FIG. 7, 7 and 15 days after IAA addition
Method: For the growth and survival tests the minimal medium was utilized. A culture of the various strains was kept in growth stationary phase for two days, then they were collected, properly diluted and plated at the various recommended periods of time so as to obtain about 100-1000 colonies per plate. For the strains to be treated with IAA, the addition (0.05 or 0.5 mM IAA) occurred after two days of growth in stationary phase, then the bacteria were diluted and plated.
The author has evaluated the ability of S. meliloti 1021 to generate colonies on agar plates after prolonged incubation in growth medium. The formed colonies were counted on at least five plates and the experiment was repeated at least five times.
as §1
In fact, the following groups were compared: • Sm 1021; • Sm 1021 additioned with 0.5 mM IAA; • Sm 1021 additioned with 0.05 mM IAA; • Sm 1021 containing the wild promoter-iaaMtms2 construct (RD 64) • Sm 1021 containing the promoter-iaaMtms2 construct mutated in the −16/−14 GAC region (RD65); • Sm 1021 containing the promoter-iaaMtms2 construct mutated in the −48, 49, 51, 52 G region (RD66); • Sm 1021 containing the promoter-iaaMtms2 construct mutated in the −40-37 CCCC (RD67); b) Effect of Various IAA Concentrations on the Survival of Sinorhizobium Meliloti 1021
In order to evaluate the effect of different IAA concentrations on the survival of Sinorhizobium meliloti 1021 the number of colonies generated on agar plates were evaluated (see FIG. 7). The utilized concentrations were 0.05; 0.2; 0.5; and 2 mM IAA. The inocula of the wild strain not treated with IAA were used as controls as well as the RD64 strain. The number of colonies of S.m. 1021 was arbitrarily set equal to 100%. The number of colonies generated after 7 and 15 days of growth after the IAA addition in the growth liquid medium was evaluated.

## O=C(O)Cc1c[nH]c2ccccc12 [IAA, indole-3-acetic acid]
[1]; IAA at 0.05 mM, FIG. 8
  increase of the survival of the bacterial cells under dehydration: up to 50%
[1]; IAA purified at 0.05 mM, after two weeks
  additional increase in the cellular survival of pelleted, dehydrated and plated cells: up to 40%
S. meliloti 1021
  number of cells able to generate colonies after incubation at 4° C. with respect to the not treated strain: almost the double
[2]; 0.5 M NaCl, 3 hours, unstressed cells = 100%, IAA added at 0.5 mM to 1021, strain 64 without addition
  Survival (%), Osmotic shock (+0.5 M NaCl): 78 ± 1%
[2]; 55° C., 5 minutes, unstressed cells = 100%, IAA added at 0.5 mM to 1021, strain 64 without addition
  Survival (%), Heat-shock (55° C.): 0.196 ± 0.021%
[2]; 55° C., relative to untreated 1021
  more resistant than the untreated 1021, high temperature: 10%
[2]; 100 J/m^2, unstressed cells = 100%, IAA added at 0.5 mM to 1021, strain 64 without addition
  Survival (%), UV-irradiation (100 J/m^2): 86 ± 1%
[2]; UV irradiation, relative to untreated 1021
  more resistant than the untreated 1021, intense UV irradiation: 10%
[2]; heat shock, IAA at 0.05 mM as printed, relative to S.m. 1021
  colonies generated more than the control after heat shock: up to 20%
[2]; high osmotic solution, relative to untreated 1021
  more resistant than the untreated 1021, high osmotic solution: 50%
[2]; pH3, 30 minutes, relative to untreated 1021
  more resistant than the untreated 1021, very low pH: 100%
[2]; pH 3, 30 minutes, unstressed cells = 100%, IAA added at 0.5 mM to 1021, strain 64 without addition
  Survival (%), Acid shock (pH 3.0): 0.0023 ± 0.0006%
[3]; 0.05 mM IAA added after two days in stationary phase
  ability to generate colonies with respect to the reference strain (1021): greater ability to generate colonies
[3]; 0.2 mM IAA
  increase of the ability to generate colonies: effective to increase the ability to generate colonies
[3]; 0.5 mM IAA added after two days in stationary phase
  ability to generate colonies with respect to the reference strain (1021): greater ability to generate colonies
[3]; 0.5 mM IAA
  increase of the ability to generate colonies: effective to increase the ability to generate colonies
[3]; purified IAA at 0.5 mM, after two growth weeks
  total increase in the number of live cells in liquid culture with respect to the wild strain: at least 100%
